Assay results from patent publication US8697739B2, “Bicyclic acetyl-CoA carboxylase inhibitors and uses thereof” (Novartis AG, priority 2010, dated 2014).

molecular target: T1, human acetyl-CoA carboxylase 2 (ACC2) (Homo sapiens, UniProt O00763); test: Acetyl-CoA carboxylase enzyme assay (malonyl-CoA formation by LC/MS/MS); format: biochemical; details: recombinant human ACC2 (aa 144-2458); read-out: IC50 ACC2
T1 construct: The cDNA encoding amino acids 144 to 2458 of human acetyl-CoA carboxylase 2; made in house; host or cells: Sf9 insect cells (baculovirus, pFastBac1)
T1 sequence (O00763 144-2458): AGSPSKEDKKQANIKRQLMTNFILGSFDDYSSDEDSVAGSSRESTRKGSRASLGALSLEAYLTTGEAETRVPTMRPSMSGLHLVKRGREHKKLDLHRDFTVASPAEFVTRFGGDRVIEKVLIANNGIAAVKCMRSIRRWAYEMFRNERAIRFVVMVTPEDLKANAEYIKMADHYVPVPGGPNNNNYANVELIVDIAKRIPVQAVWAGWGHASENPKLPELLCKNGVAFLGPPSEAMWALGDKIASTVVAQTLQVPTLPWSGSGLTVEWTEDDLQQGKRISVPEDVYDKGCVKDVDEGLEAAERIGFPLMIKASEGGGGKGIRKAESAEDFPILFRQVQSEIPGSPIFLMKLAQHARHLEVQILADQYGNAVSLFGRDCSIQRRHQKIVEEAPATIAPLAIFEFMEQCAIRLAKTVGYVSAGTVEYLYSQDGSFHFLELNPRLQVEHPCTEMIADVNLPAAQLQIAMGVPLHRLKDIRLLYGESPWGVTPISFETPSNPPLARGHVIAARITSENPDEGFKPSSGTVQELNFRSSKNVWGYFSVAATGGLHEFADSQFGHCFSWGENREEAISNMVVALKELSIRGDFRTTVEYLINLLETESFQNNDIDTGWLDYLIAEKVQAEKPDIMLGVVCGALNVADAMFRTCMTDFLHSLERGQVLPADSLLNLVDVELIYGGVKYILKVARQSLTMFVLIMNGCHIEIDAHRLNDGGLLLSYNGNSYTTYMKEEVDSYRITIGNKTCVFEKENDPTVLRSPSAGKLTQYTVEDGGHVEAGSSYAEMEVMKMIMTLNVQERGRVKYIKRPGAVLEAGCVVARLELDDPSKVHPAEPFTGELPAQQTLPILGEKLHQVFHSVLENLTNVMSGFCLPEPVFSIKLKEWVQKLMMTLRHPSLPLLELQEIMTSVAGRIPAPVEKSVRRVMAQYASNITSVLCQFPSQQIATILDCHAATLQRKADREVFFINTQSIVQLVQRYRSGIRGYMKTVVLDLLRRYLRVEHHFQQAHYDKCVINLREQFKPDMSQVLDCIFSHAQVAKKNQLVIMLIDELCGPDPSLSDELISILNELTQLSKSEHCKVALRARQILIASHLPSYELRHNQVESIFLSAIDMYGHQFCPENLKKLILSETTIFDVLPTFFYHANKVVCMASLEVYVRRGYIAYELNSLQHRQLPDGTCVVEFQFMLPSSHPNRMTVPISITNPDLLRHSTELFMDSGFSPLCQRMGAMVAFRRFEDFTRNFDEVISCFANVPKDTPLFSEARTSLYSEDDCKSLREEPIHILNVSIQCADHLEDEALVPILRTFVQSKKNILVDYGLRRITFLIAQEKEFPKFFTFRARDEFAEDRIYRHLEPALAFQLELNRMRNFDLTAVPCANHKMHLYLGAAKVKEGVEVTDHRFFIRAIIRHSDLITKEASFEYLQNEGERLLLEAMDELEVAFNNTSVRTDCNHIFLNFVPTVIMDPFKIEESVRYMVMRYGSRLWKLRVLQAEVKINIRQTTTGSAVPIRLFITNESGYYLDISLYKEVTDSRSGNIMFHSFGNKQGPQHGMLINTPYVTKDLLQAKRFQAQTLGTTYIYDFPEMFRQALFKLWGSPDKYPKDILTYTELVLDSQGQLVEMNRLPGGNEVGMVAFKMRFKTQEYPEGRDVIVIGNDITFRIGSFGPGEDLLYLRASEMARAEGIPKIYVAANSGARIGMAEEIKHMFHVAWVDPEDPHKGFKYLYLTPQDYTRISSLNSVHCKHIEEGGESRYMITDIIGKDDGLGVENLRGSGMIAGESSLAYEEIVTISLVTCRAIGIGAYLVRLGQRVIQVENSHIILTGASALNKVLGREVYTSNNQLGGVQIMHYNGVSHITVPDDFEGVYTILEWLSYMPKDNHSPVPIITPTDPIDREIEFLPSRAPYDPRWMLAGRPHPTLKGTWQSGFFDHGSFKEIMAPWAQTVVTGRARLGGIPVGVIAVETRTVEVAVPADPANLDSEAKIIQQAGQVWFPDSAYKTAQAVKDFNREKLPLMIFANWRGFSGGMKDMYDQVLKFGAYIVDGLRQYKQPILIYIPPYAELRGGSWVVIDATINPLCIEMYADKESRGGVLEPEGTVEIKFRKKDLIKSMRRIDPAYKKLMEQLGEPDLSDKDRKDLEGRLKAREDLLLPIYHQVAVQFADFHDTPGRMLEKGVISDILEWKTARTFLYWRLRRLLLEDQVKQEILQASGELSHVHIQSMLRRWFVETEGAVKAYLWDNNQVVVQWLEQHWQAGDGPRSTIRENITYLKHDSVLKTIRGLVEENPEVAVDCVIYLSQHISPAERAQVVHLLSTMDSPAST
In short: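 Malonyl-CoA formation was read by LC/MS/MS MRM against a [13C3]-malonyl-CoA internal standard, after acetic acid quench. The enzyme was baculovirus/Sf9-expressed human ACC2 residues 144–2458, given 15 minutes room-temperature compound preincubation in HEPES pH 7.5 buffer with MgCl2, citrate and DTT. Substrate solution held 50 μM acetyl-CoA, 120 μM ATP and 2 mM KHCO3.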

Row | IC50 | Structure (SMILES)
1 | 75 nM | Cn1c(-c2ccc(CCC(=O)O)cc2)c(C#N)c2ccc(S(=O)(=O)N[C@H]3CC[C@H](C(=O)N4CCC[C@H]4C(C)(C)C)CC3)cc21 [Example 429, 3-(4-(6-(N-((1S,4r)-4-((S)-2-tert-butylpyrrolidine-1-carbonyl)cyclohexyl)sulfamoyl)-3-cyano-1-methyl-1H-indol-2-yl)phenyl)propanoic acid]
2 | 119 nM | O=C([C@H]1CC[C@H](NS(=O)(=O)c2ccc3[nH]c(Nc4ccccc4)nc3c2)CC1)N1CCOCC1 [Example 584, N-((1r,4r)-4-(morpholine-4-carbonyl)cyclohexyl)-2-(phenylamino)-1H-benzo[d]imidazole-5-sulfonamide]
3 | < 10 nM | Cn1c(-c2ccc(CCC(=O)O)cc2)c(C#N)c2ccc(S(=O)(=O)N[C@H]3CC[C@H](C(=O)N4CCC[C@@H]4C(C)(C)C)CC3)cc21 [Example 430, 3-(4-(6-(N-((1R,4r)-4-((R)-2-tert-butylpyrrolidine-1-carbonyl)cyclohexyl)sulfamoyl)-3-cyano-1-methyl-1H-indol-2-yl)phenyl)propanoic acid]
4 | 445 nM | Cn1c(-c2ccccc2)cc2ccc(S(=O)(=O)N[C@H]3CC[C@H](C(=O)N4CCC(O)C4)CC3)cc21 (stereo partly drawn) [Example 433, N-((1r,4r)-4-(3-hydroxypyrrolidine-1-carbonyl)cyclohexyl)-1-methyl-2-phenyl-1H-indole-6-sulfonamide]
5 | 30 nM | COCc1ccc(-c2cc3ccc(S(=O)(=O)N[C@H]4CC[C@H](C(=O)N5CCNC(C(F)(F)F)C5)CC4)cc3n2C)cc1 (stereo partly drawn) [Example 339, 2-(4-(methoxymethyl)phenyl)-1-methyl-N-((1r,4r)-4-(3-(trifluoromethyl)piperazine-1-carbonyl)cyclohexyl)-1H-indole-6-sulfonamide]
6 | < 10 nM | Cn1c(-c2ccc(CCC(=O)O)cc2)cc2ccc(S(=O)(=O)N[C@H]3CC[C@H](C(=O)N4CCC[C@@H]4C(C)(C)C)CC3)cc21 [Example 400, 3-(4-(6-(N-((1R,4r)-4-((R)-2-tert-butylpyrrolidine-1-carbonyl)cyclohexyl)sulfamoyl)-1-methyl-1H-indol-2-yl)phenyl)propanoic acid]
7 | 12 nM | Cc1ccccc1-c1cc2ccc(S(=O)(=O)N[C@H]3CC[C@H](C(=O)N[C@H](C)c4ccc(F)cc4)CC3)cc2[nH]1 [Example 292, (1r,4R)-N-((R)-1-(4-fluorophenyl)ethyl)-4-(2-o-tolyl-1H-indole-6-sulfonamido)cyclohexanecarboxamide]
8 | 733 nM | C[C@@H](NC(=O)[C@H]1CC[C@H](NS(=O)(=O)c2ccc3c(c2)OCO3)CC1)c1ccc(F)cc1 [Example 661, (1r,4R)-4-(benzo[d][1,3]dioxole-5-sulfonamido)-N-((R)-1-(4-fluorophenyl)ethyl)cyclohexanecarboxamide]
9 | 15 nM | O=C([C@H]1CC[C@H](NS(=O)(=O)c2cnc3c(c2)NCCS3)CC1)N1CCOCC1c1ccccc1 (stereo partly drawn) [Example 193, N-((1r,4r)-4-(3-phenylmorpholine-4-carbonyl)cyclohexyl)-2,3-dihydro-1H-pyrido[2,3-b][1,4]thiazine-7-sulfonamide]
10 | 30 nM | C[C@@H](NC(=O)[C@H]1CC[C@H](NS(=O)(=O)c2ccc3nc(C#CCN4CCNCC4)ccc3c2)CC1)c1ccc(F)cc1 [Example 247, (1r,4R)-N-((R)-1-(4-fluorophenyl)ethyl)-4-(2-(3-(piperazin-1-yl)prop-1-ynyl)quinoline-6-sulfonamido)cyclohexanecarboxamide]
11 | 95 nM | C[C@H]1CCCCN1C(=O)[C@H]1CC[C@H](NS(=O)(=O)c2ccc3c(C#N)c(C4CC4)n(C)c3c2)CC1 [Example 382, 3-cyano-2-cyclopropyl-1-methyl-N-((1S,4r)-4-((S)-2-methylpiperidine-1-carbonyl)cyclohexyl)-1H-indole-6-sulfonamide]

Row | Structure (SMILES) | IC50
12 | C[C@@H](NC(=O)C1CCC(NS(=O)(=O)c2ccc3[nH]c(-c4ccccc4)nc3c2)CC1)c1ccccc1 (stereo partly drawn) [Example 580, (1r,4S)-4-(2-phenyl-1H-benzo[d]imidazole-5-sulfonamido)-N-((S)-1-phenylethyl)cyclohexanecarboxamide] | 1740 nM
